From ChEMBL document CHEMBL4138123, “Design, synthesis and biological evaluation of novel pyrazolochalcones as potential modulators of PI3K/Akt/mTOR pathway and inducers of apoptosis in breast cancer cells” (Eur J Med Chem, 2017)
pIC50: −log10 of the molar value.

Key:
NCI-H23 = assay: Cytotoxicity against human NCI-H23 cells assessed as growth inhibition after 48 hrs by sulforhodamine B assay; assay type: functional; conditions: NCI-H23, 48 h; for CC50: read-out: LC50 (the source's name)
UACC-257 [1] = assay: Cytotoxicity against human UACC257 cells assessed as cell growth at 10 uM after 48 hrs by sulforhodamine B assay relative to control; assay type: functional; conditions: UACC-257, 48 h, read-out: Activity
HT-29 = assay: Cytotoxicity against human HT-29 cells assessed as cell growth at 0.01 uM after 48 hrs by sulforhodamine B assay relative to control; assay type: functional; conditions: HT-29, 48 h, read-out: Activity
UACC-257 [2] = assay: Cytotoxicity against human UACC257 cells assessed as cell growth at 0.01 uM after 48 hrs by sulforhodamine B assay relative to control; assay type: functional; conditions: UACC-257, 48 h, read-out: Activity
SK-MEL-28 = assay: Cytotoxicity against human SK-MEL-28 cells assessed as cell growth at 1 uM after 48 hrs by sulforhodamine B assay relative to control; assay type: functional; conditions: SK-MEL-28, 48 h, read-out: Activity
T47D = assay: Cytotoxicity against human T47D cells assessed as cell growth at 1 uM after 48 hrs by sulforhodamine B assay relative to control; assay type: functional; conditions: read-out: Activity
MOLT-4 = assay: Cytotoxicity against human MOLT4 cells assessed as cell growth at 1 uM after 48 hrs by sulforhodamine B assay relative to control; assay type: functional; conditions: MOLT-4, 48 h, read-out: Activity
TK-10 = assay: Cytotoxicity against human TK10 cells assessed as growth inhibition after 48 hrs by sulforhodamine B assay; assay type: functional; conditions: TK-10, 48 h
SNB-19 = assay: Cytotoxicity against human SNB19 cells assessed as cell growth at 100 uM after 48 hrs by sulforhodamine B assay relative to control; assay type: functional; conditions: SNB-19, 48 h, read-out: Activity
Hs-578T = assay: Cytotoxicity against human Hs 578T cells assessed as cell growth at 10 uM after 48 hrs by sulforhodamine B assay relative to control; assay type: functional; conditions: read-out: Activity
SN12C = assay: Cytotoxicity against human SN12C cells assessed as cell growth at 100 uM after 48 hrs by sulforhodamine B assay relative to control; assay type: functional; conditions: read-out: Activity
IGROV-1 = assay: Cytotoxicity against human IGROV1 cells assessed as cell growth at 10 uM after 48 hrs by sulforhodamine B assay relative to control; assay type: functional; conditions: IGROV-1, 48 h, read-out: Activity
SR = assay: Cytotoxicity against human SR cells assessed as cell growth at 10 uM after 48 hrs by sulforhodamine B assay relative to control; assay type: functional; conditions: read-out: Activity
HOP-62 = assay: Cytotoxicity against human HOP62 cells assessed as cell growth at 0.1 uM after 48 hrs by sulforhodamine B assay relative to control; assay type: functional; conditions: HOP-62, 48 h, read-out: Activity
NCI-H226 = assay: Cytotoxicity against human NCI-H226 cells assessed as cell growth at 0.1 uM after 48 hrs by sulforhodamine B assay relative to control; assay type: functional; conditions: NCI-H226, 48 h, read-out: Activity
RPMI-8226 [3] = assay: Cytotoxicity against human RPMI8226 cells assessed as cell growth at 100 uM after 48 hrs by sulforhodamine B assay relative to control; assay type: functional; conditions: RPMI-8226, 48 h, read-out: Activity
HCC 2998 = assay: Cytotoxicity against human HCC2998 cells assessed as cell growth at 0.1 uM after 48 hrs by sulforhodamine B assay relative to control; assay type: functional; conditions: HCC 2998, 48 h, read-out: Activity
SK-MEL-5 = assay: Cytotoxicity against human SK-MEL-5 cells assessed as cell growth at 10 uM after 48 hrs by sulforhodamine B assay relative to control; assay type: functional; conditions: SK-MEL-5, 48 h, read-out: Activity
RPMI-8226 [4] = assay: Cytotoxicity against human RPMI8226 cells assessed as cell growth at 1 uM after 48 hrs by sulforhodamine B assay relative to control; assay type: functional; conditions: RPMI-8226, 48 h, read-out: Activity
A498 [5] = assay: Cytotoxicity against human A498 cells assessed as cell growth at 0.01 uM after 48 hrs by sulforhodamine B assay relative to control; assay type: functional; conditions: A498, 48 h, read-out: Activity
BT-549 [6] = assay: Cytotoxicity against human BT549 cells assessed as cell growth at 100 uM after 48 hrs by sulforhodamine B assay relative to control; assay type: functional; conditions: BT-549, 48 h, read-out: Activity
NCI-H460 = assay: Cytotoxicity against human NCI-H460 cells assessed as cell growth at 10 uM after 48 hrs by sulforhodamine B assay relative to control; assay type: functional; conditions: NCI-H460, 48 h, read-out: Activity
U-251 = assay: Cytotoxicity against human U251 cells assessed as cell growth at 0.01 uM after 48 hrs by sulforhodamine B assay relative to control; assay type: functional; conditions: U-251, 48 h, read-out: Activity
A498 [7] = assay: Cytotoxicity against human A498 cells assessed as cell growth at 1 uM after 48 hrs by sulforhodamine B assay relative to control; assay type: functional; conditions: A498, 48 h, read-out: Activity
OVCAR-3 = assay: Cytotoxicity against human OVCAR3 cells assessed as cell growth at 0.1 uM after 48 hrs by sulforhodamine B assay relative to control; assay type: functional; conditions: OVCAR-3, 48 h, read-out: Activity
MDA-MB-468 = assay: Cytotoxicity against human MDA-MB-468 cells assessed as cell growth at 100 uM after 48 hrs by sulforhodamine B assay relative to control; assay type: functional; conditions: MDA-MB-468, 48 h, read-out: Activity
CCRF-CEM = assay: Cytotoxicity against human CCRF-CEM cells assessed as cell growth at 10 uM after 48 hrs by sulforhodamine B assay relative to control; assay type: functional; conditions: read-out: Activity
MCF7 = assay: Cytotoxicity against human MCF7 cells assessed as growth inhibition after 48 hrs by MTT assay; assay type: functional, cell-based; conditions: MCF7, 48 h
BT-549 [8] = assay: Cytotoxicity against human BT549 cells assessed as cell growth at 0.01 uM after 48 hrs by sulforhodamine B assay relative to control; assay type: functional; conditions: BT-549, 48 h, read-out: Activity
MDA-MB-231 = assay: Cytotoxicity against human MDA-MB-231 cells assessed as cell growth at 100 uM after 48 hrs by sulforhodamine B assay relative to control; assay type: functional; conditions: MDA-MB-231, 48 h, read-out: Activity
NCI-H522 = assay: Cytotoxicity against human NCI-H522 cells assessed as cell growth at 100 uM after 48 hrs by sulforhodamine B assay relative to control; assay type: functional; conditions: NCI-H522, 48 h, read-out: Activity
OVCAR-5 = assay: Cytotoxicity against human OVCAR5 cells assessed as cell growth at 1 uM after 48 hrs by sulforhodamine B assay relative to control; assay type: functional; conditions: OVCAR-5, 48 h, read-out: Activity
OVCAR-8 = assay: Cytotoxicity against human OVCAR8 cells assessed as growth inhibition after 48 hrs by sulforhodamine B assay; assay type: functional; conditions: OVCAR-8, 48 h
SF-539 = assay: Cytotoxicity against human SF539 cells assessed as cell growth at 100 uM after 48 hrs by sulforhodamine B assay relative to control; assay type: functional; conditions: SF-539, 48 h, read-out: Activity
DU-145 = assay: Cytotoxicity against human DU145 cells assessed as cell growth at 0.1 uM after 48 hrs by sulforhodamine B assay relative to control; assay type: functional; conditions: DU-145, 48 h, read-out: Activity

SMILES	TGI (NCI-H23) [µM]	CC50 (NCI-H23) [µM]	growth at 10 µM (UACC-257 [1]) [%]	growth at 0.01 µM (HT-29) [%]	growth at 0.01 µM (UACC-257 [2]) [%]	growth at 1 µM (SK-MEL-28) [%]	growth at 1 µM (T47D) [%]	growth at 1 µM (MOLT-4) [%]	LC50 (TK-10) [µM]	TGI (TK-10) [µM]	growth at 100 µM (SNB-19) [%]	growth at 10 µM (Hs-578T) [%]	growth at 100 µM (SN12C) [%]	growth at 10 µM (IGROV-1) [%]	growth at 10 µM (SR) [%]	growth at 0.1 µM (HOP-62) [%]	growth at 0.1 µM (NCI-H226) [%]	growth at 100 µM (RPMI-8226 [3]) [%]	growth at 0.1 µM (HCC 2998) [%]	pIC50 (MCF7)	further results
COc1cc(-c2cc(/C=C/C(=O)c3ccc(F)c(F)c3)[nH]n2)cc(OC)c1OC	8.5	> 100	-18	104	88	98	76	91	> 100	7.42	22	21	-22	14	11	101	97	-36	92	5.60	growth at 10 µM (SK-MEL-5): -21%; growth at 1 µM (RPMI-8226 [4]): 73%; growth at 0.01 µM (A498 [5]): 100%; growth at 100 µM (BT-549 [6]): -58%; growth at 10 µM (NCI-H460): -9%; growth at 0.01 µM (U-251): 97%; growth at 1 µM (A498 [7]): 81%; growth at 0.1 µM (OVCAR-3): 104%; growth at 100 µM (MDA-MB-468): -26%; growth at 10 µM (CCRF-CEM): 7%; growth at 0.01 µM (BT-549 [8]): 101%; growth at 100 µM (MDA-MB-231): -49%; growth at 100 µM (NCI-H522): -53%; growth at 1 µM (OVCAR-5): 92%; LC50 (OVCAR-8): > 100 µM; TGI (OVCAR-8): 17.3 µM; growth at 100 µM (SF-539): -63%
COc1ccc(-c2cc(/C=C/C(=O)c3ccc4c(c3)OCO4)[nH]n2)cc1OC																				5.82	GI50 (NCI-H23): 2.25 µM; GI50 (TK-10): 1.5 µM; GI50 (OVCAR-8): 2.63 µM
COc1cc(-c2cc(/C=C/C(=O)c3ccc4c(c3)OCO4)[nH]n2)cc(OC)c1OC	> 100	> 100	2	99	86	92	79	99	> 100	5.73	6	17	18	29	6	100	98	-37	102	6.05	growth at 10 µM (SK-MEL-5): 26%; growth at 1 µM (RPMI-8226 [4]): 36%; growth at 0.01 µM (A498 [5]): 89%; growth at 10 µM (NCI-H460): -38%; growth at 0.01 µM (U-251): 96%; growth at 1 µM (A498 [7]): 83%; growth at 0.1 µM (OVCAR-3): 101%; growth at 100 µM (MDA-MB-468): -85%; growth at 10 µM (CCRF-CEM): -19%; growth at 0.01 µM (BT-549 [8]): 94%; growth at 100 µM (MDA-MB-231): 21%; growth at 100 µM (NCI-H522): -97%; growth at 0.1 µM (DU-145): 102%; growth at 1 µM (OVCAR-5): 88%; LC50 (OVCAR-8): > 100 µM; TGI (OVCAR-8): 11.1 µM; growth at 100 µM (SF-539): -83%
